Laboratory results: patent publication US7183315B2, “Silver salts of sucrose-octasulphate” (Interalia S.R.L., priority 2001, dated 2007)

Key:
[1] = tested on: Staphylococcus Aureus ATCC 6538; assay: Bacterial growth inhibition test in culture broth; type: cell-based; design: key to inhibition of S. aureus ATCC 6538 growth / inhibition of S. aureus ATCC 6538: − growth; + inhibition; details: for inhibition of S. aureus ATCC 6538: Table 2
Experimental: Serial dilutions of known titre of the two products SOS-Ag and Katoxyn, the latter containing Ag in the form of metallic silver (silver […]® collodial chemical), have been placed directly in contact with the test microorganism (Staphylococcus Aureus ATCC 6538) for incubation in culture broth under agitation. The effect of the substances on cellular growth has been measured by evaluating the absence of turbidity in the culture medium. The anti bacterial activity has been verified by the seeding of 1 ml of culture broth in an […] medium, with observations at 7, 14, 21, 28 days from the beginning of the experiment (tables 1 and 2).

[2] = tested on: Staphylococcus Aureus ATCC 6538; assay: Bacterial growth inhibition test by diffusion in agar (seeded by inclusion, 8 mm wells); type: cell-based
From the text: The inhibition of bacterial growth has been, in this case, evaluated on a confluent bacterial culture of Staphylococcus aureus ATCC 6538 obtained on solid medium, according to the seeding method for inclusion. Serial dilutions of the test products, of known Ag titre, have been deposited inside 8 mm diameter wells formed in the medium in direct contact with the bacteria Staphylococcus aureus ATCC 6538. The antibacterial activity of the products under test have been evaluated, after appropriate incubations, by measuring the halos of inhibition around each well (tables 3 and 4).

Candida albicans = details: preservative in cosmetic preparations; cited from earlier work
Staphylococcus aureus = details: preservative in cosmetic preparations; cited from earlier work
Pseudomonas aeruginosa = details: preservative in cosmetic preparations; cited from earlier work
[3] = Stability in solid state and aqueous solution; type: physicochemical; details: obtained according to example 3
[4] = Solubility of the product; type: physicochemical; details: product of example 1
S. aureus ATCC 6538 [5] = assay: Diffusion method in agar, cellulose disks of 13 mm; type: cell-based, Staphylococcus aureus; details: 72 hours at 37° C.
Experimental: (§1) The characterisation of the antibacterial activity has been carried out using the method of diffusion in agar, placing the substances in contact with confluent bacterial cultures on solid medium. The experiments have been carried out according to two distinct methods: 1) wetting sterile cellulose disks, 13 mm in diameter with 100 μl of solutions at serial dilutions of the product of known Ag titre. […] 100 μl of the solutions containing the products at known concentrations of Ag are placed on the base of the wells, and the bacteriocidal activity is observed after 72 hours of incubation at 37° C. against a blank constituted of just the solvent used for the solubilisation of the products.

S. aureus ATCC 6538 [6] = assay: Diffusion method in agar, seeded by inclusion, 8 mm wells, 72 h; type: cell-based, Staphylococcus aureus; details: 72 hours at 37° C.
Experimental: as §1

CC1(C)S[C@@H]2[C@H](NC(=O)[C@H](N)c3ccccc3)C(=O)N2[C@H]1C(=O)O [ampicillin, reference compound]
inhibition of S. aureus ATCC 6538 growth ([1]; positive control, Table 1, 7 days): + | inhibition of S. aureus ATCC 6538 growth ([1]; positive control, Table 1, 14 days): + | inhibition of S. aureus ATCC 6538 growth ([1]; positive control, Table 1, 21 days): + | inhibition of S. aureus ATCC 6538 growth ([1]; positive control, Table 1, 28 days): + | inhibition of S. aureus ATCC 6538 ([1]; positive control, 7 days): + | inhibition of S. aureus ATCC 6538 ([1]; positive control, 14 days): + | inhibition of S. aureus ATCC 6538 ([1]; positive control, 21 days): + | inhibition of S. aureus ATCC 6538 ([1]; positive control, 28 days): + | Halo of inhibition ([2]; Concentration 5 I.U./ml, positive control): 11 mm | Halo of inhibition ([2]; Concentration 10 I.U./ml, positive control): 20 mm | Halo of inhibition ([2]; Concentration 20 I.U./ml, positive control): 39 mm

[Ag] [silver]
concentration of silver showing activity (Candida albicans): 10^−5 M | concentration of silver showing activity (Staphylococcus aureus): 10^−5 M | concentration of silver showing activity (Pseudomonas aeruginosa): 10^−5 M

silver salts of sucrose-octasulphate [SOS-Ag]
stability in aqueous solution ([3]; aqueous solution): good stability | stability in the solid state ([3]; solid state): good stability | Solubility in organic solvents ([4]; organic solvents): particularly insoluable | Solubility in water ([4]; water): very soluble | Halo of inhibition (S. aureus ATCC 6538 [5]; Ag titre 10^−2 M): 15.3 mm | Halo of inhibition (S. aureus ATCC 6538 [5]; Ag titre 10^−3 M): 12 mm | Halo of inhibition (S. aureus ATCC 6538 [5]; Ag titre 10^−4 M): 0 mm | Halo of inhibition (S. aureus ATCC 6538 [5]; Ag titre 10^−5 M): 0 mm | inhibition of S. aureus ATCC 6538 growth ([1]; Ag titre 1 × 10^−2 M, 7 days): + | inhibition of S. aureus ATCC 6538 growth ([1]; Ag titre 1 × 10^−2 M, 14 days): + | inhibition of S. aureus ATCC 6538 growth ([1]; Ag titre 1 × 10^−2 M, 21 days): + | inhibition of S. aureus ATCC 6538 growth ([1]; Ag titre 1 × 10^−2 M, 28 days): + | inhibition of S. aureus ATCC 6538 growth ([1]; Ag titre 1 × 10^−3 M, 7 days): + | inhibition of S. aureus ATCC 6538 growth ([1]; Ag titre 1 × 10^−3 M, 14 days): + | inhibition of S. aureus ATCC 6538 growth ([1]; Ag titre 1 × 10^−3 M, 21 days): + | inhibition of S. aureus ATCC 6538 growth ([1]; Ag titre 1 × 10^−3 M, 28 days): + | inhibition of S. aureus ATCC 6538 growth ([1]; Ag titre 1 × 10^−4 M, 7 days): − | inhibition of S. aureus ATCC 6538 growth ([1]; Ag titre 1 × 10^−4 M, 14 days): − | inhibition of S. aureus ATCC 6538 growth ([1]; Ag titre 1 × 10^−4 M, 21 days): − | inhibition of S. aureus ATCC 6538 growth ([1]; Ag titre 1 × 10^−4 M, 28 days): − | inhibition of S. aureus ATCC 6538 growth ([1]; Ag titre 1 × 10^−5 M, 7 days): − | inhibition of S. aureus ATCC 6538 growth ([1]; Ag titre 1 × 10^−5 M, 14 days): − | inhibition of S. aureus ATCC 6538 growth ([1]; Ag titre 1 × 10^−5 M, 21 days): − | inhibition of S. aureus ATCC 6538 growth ([1]; Ag titre 1 × 10^−5 M, 28 days): − | inhibition of S. aureus ATCC 6538 growth ([1]; Ag titre 5 × 10^−4 M, 7 days): − | inhibition of S. aureus ATCC 6538 growth ([1]; Ag titre 5 × 10^−4 M, 14 days): − | inhibition of S. aureus ATCC 6538 growth ([1]; Ag titre 5 × 10^−4 M, 21 days): − | inhibition of S. aureus ATCC 6538 growth ([1]; Ag titre 5 × 10^−4 M, 28 days): − | concentration of Ag at which the product has been effective / active ([1]; S. aureus ATCC 6538, summary of tables 1-4 (culture broth and agar diffusion)): 1 mM | Halo of inhibition ([2]; Ag titre 1 × 10^−3 M, 8 mm wells): 13 mm | Halo of inhibition ([2]; Ag titre 1 × 10^−4 M, 8 mm wells): 0 mm | Halo of inhibition ([2]; Ag titre 5 × 10^−4 M, 8 mm wells): 0 mm | Halo of inhibition (S. aureus ATCC 6538 [6]; Ag titre 10^−2 M): 14.5 mm | Halo of inhibition (S. aureus ATCC 6538 [6]; Ag titre 10^−3 M): 14 mm | Halo of inhibition (S. aureus ATCC 6538 [6]; Ag titre 10^−4 M): 0 mm | Halo of inhibition (S. aureus ATCC 6538 [6]; Ag titre 10^−5 M): 0 mm
